Structures can show the parent of a compound that is named as a salt.
How the values were obtained:
Test in all cases: PI3K enzyme inhibitory activity in the cell free assay (ADP-Glo Kinase Assay)
Type in all cases: biochemical
PI3Kα = molecular target: T1, PI3Kα (Homo sapiens, UniProt P42336); conditions: human recombinant PI3Kα, ATP 50 μM; read-out: PI3K alpha inhibition
T1 construct: purchased Millipore Ltd (Billerica, Mass.)

PI3Kβ = molecular target: T2, PI3Kβ (Homo sapiens, UniProt P42338); conditions: human recombinant PI3Kβ, ATP 100 μM; read-out: PI3K beta inhibition
T2 construct: purchased Millipore Ltd (Billerica, Mass.)

PI3Kγ = molecular target: T3, PI3Kγ (Homo sapiens, UniProt P48736); conditions: human recombinant PI3Kγ, ATP 30 μM; read-out: PI3K gamma inhibition
T3 construct: purchased Millipore Ltd (Billerica, Mass.)

PI3Kδ = molecular target: T4, PI3Kδ (Homo sapiens, UniProt O00329); conditions: human recombinant PI3Kδ, ATP 80 μM; read-out: PI3K delta inhibition
T4 construct: purchased Millipore Ltd (Billerica, Mass.)
T4 sequence (O00329 1-1044): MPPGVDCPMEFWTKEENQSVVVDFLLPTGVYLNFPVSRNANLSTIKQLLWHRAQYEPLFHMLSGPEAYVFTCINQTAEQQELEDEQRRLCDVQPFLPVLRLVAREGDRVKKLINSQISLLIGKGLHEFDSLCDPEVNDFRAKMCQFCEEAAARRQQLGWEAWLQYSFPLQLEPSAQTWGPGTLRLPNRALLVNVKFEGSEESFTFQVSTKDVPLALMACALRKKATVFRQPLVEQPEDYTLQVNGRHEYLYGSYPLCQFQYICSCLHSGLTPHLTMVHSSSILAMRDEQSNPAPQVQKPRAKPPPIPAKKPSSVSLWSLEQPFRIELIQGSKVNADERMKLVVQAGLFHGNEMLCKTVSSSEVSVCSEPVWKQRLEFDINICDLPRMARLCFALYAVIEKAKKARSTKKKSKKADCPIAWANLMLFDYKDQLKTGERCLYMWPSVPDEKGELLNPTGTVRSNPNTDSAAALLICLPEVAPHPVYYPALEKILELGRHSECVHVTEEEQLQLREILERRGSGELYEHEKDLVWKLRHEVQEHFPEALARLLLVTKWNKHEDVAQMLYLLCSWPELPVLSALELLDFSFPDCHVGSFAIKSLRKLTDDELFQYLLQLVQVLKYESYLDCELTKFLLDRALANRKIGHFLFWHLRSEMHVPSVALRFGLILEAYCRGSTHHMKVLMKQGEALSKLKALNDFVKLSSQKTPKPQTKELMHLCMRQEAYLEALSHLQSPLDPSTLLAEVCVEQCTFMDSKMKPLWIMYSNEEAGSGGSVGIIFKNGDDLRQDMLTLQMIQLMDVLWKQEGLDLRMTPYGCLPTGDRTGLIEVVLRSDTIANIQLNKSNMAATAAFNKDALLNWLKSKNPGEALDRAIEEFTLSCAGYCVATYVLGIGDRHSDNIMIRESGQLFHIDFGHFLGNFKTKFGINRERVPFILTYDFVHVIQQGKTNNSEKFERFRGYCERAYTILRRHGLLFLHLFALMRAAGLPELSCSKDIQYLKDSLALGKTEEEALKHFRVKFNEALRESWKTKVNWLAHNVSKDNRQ

T2 sequence (P42338 whole entry): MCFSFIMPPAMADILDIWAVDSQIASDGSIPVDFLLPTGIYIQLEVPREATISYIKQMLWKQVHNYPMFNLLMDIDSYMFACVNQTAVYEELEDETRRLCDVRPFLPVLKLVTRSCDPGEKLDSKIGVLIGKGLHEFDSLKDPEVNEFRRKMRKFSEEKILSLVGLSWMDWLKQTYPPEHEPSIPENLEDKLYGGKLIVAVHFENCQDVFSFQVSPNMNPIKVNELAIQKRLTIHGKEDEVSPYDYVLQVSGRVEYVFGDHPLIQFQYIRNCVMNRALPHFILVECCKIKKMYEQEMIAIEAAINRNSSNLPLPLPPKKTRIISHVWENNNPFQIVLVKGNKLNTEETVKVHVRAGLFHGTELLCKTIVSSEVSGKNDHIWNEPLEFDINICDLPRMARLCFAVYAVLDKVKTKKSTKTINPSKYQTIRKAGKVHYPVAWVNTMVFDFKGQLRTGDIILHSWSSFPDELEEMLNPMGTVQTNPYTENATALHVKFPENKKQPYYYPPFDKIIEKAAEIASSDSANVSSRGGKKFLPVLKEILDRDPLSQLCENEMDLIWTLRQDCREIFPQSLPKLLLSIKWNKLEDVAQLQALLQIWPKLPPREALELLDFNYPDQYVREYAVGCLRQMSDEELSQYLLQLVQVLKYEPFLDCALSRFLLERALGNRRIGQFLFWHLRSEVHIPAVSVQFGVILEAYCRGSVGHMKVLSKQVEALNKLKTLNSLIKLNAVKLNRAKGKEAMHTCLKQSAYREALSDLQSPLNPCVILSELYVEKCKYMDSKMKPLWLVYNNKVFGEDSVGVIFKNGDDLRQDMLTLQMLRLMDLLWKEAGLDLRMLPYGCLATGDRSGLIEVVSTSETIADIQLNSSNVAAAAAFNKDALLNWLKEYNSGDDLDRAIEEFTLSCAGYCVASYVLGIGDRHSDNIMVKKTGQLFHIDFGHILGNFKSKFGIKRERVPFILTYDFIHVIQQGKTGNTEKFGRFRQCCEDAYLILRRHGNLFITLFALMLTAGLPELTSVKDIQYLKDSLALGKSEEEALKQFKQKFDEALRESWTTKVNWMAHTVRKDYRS
T3 sequence (P48736 whole entry): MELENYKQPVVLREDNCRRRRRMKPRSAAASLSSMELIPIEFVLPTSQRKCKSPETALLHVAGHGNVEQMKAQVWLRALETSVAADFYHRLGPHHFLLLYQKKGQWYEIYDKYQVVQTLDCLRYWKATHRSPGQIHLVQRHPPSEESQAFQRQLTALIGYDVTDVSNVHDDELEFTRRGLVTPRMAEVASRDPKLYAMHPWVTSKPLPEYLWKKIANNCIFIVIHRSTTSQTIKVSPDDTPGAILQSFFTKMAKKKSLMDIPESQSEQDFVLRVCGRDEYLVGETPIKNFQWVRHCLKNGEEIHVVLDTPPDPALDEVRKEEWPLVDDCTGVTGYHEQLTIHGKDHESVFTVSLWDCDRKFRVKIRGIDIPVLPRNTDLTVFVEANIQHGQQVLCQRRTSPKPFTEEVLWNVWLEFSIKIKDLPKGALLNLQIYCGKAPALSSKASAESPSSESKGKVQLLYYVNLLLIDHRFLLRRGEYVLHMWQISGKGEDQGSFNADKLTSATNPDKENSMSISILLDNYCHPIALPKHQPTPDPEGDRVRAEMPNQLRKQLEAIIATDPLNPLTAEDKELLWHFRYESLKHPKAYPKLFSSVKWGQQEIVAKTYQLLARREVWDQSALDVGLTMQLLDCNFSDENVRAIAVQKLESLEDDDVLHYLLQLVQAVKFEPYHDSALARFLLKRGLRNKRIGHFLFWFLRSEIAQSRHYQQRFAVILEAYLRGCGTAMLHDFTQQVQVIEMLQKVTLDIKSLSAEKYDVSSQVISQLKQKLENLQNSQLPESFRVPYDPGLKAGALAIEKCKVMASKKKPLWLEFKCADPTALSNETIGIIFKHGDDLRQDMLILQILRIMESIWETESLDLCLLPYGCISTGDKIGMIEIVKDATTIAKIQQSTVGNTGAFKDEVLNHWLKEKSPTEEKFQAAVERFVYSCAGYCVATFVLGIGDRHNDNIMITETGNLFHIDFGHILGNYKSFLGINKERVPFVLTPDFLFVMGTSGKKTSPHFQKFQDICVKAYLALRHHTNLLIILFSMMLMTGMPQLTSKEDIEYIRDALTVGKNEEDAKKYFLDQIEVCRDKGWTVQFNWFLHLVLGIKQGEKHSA
T1 sequence (P42336 whole entry): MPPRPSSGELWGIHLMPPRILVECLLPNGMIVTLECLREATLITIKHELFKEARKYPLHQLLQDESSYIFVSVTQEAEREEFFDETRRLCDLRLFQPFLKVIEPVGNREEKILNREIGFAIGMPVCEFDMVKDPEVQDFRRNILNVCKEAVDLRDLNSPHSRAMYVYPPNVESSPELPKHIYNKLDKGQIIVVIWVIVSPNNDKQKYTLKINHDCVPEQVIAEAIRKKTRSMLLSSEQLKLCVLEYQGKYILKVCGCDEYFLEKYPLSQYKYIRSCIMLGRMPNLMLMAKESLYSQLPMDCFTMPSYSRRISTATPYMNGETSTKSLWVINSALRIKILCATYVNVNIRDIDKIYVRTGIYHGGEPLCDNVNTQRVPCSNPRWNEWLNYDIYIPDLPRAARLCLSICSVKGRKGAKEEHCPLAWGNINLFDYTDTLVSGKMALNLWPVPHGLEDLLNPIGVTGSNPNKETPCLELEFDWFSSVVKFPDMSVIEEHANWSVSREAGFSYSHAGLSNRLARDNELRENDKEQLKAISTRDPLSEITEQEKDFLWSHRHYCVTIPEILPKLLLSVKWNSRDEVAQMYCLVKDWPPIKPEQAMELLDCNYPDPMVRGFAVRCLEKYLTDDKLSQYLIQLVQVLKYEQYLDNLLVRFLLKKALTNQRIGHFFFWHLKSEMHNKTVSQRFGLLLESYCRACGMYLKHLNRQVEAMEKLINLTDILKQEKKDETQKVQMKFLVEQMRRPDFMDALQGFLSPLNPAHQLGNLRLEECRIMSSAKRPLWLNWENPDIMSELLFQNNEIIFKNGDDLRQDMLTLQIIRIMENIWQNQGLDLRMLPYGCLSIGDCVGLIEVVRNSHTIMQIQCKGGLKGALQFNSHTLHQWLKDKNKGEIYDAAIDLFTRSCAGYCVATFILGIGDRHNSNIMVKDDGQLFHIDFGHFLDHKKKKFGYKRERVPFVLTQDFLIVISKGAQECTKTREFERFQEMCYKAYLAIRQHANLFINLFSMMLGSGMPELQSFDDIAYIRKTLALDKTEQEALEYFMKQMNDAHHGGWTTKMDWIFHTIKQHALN

CC(c1oc(=O)c2ccccc2c1-c1cccc(N(C)C)c1)n1nc(-c2cc(O)cc(F)c2)c2c(N)ncnc21 (centres unmarked) [Example 119, 3-(1-(4-amino-3-(3-fluoro-5-hydroxyphenyl)-1H-pyrazolo[3,4-d]pyrimidin-1-yl)ethyl)-4-(3-(dimethylamino)phenyl)-1H-isochromen-1-one]
IC50 (PI3Kα): > 1 µM | IC50 (PI3Kβ): > 1 µM | IC50 (PI3Kγ): 0.01 to 1 µM | IC50 (PI3Kδ): 0.01 to 1 µM

CC(c1oc(=O)c2ccccc2c1-c1cncs1)n1nc(-c2cc(O)cc(F)c2)c2c(N)ncnc21 (centres unmarked) [Example 120, 3-(1-(4-amino-3-(3-fluoro-5-hydroxyphenyl)-1H-pyrazolo[3,4-d]pyrimidin-1-yl)ethyl)-4-(thiazol-5-yl)-1H-isochromen-1-one]
IC50 (PI3Kα): 0.01 to 1 µM | IC50 (PI3Kβ): 0.01 to 1 µM | IC50 (PI3Kγ): 0.01 to 1 µM | IC50 (PI3Kδ): < 0.01 µM

CC(c1oc(=O)c2ccccc2c1-c1cnc(N)s1)n1nc(-c2cc(O)cc(F)c2)c2c(N)ncnc21 (centres unmarked) [Example 121, 3-(1-(4-amino-3-(3-fluoro-5-hydroxyphenyl)-1H-pyrazolo[3,4-d]pyrimidin-1-yl)ethyl)-4-(2-aminothiazol-5-yl)-1H-isochromen-1-one hydrochloride]
IC50 (PI3Kα): > 1 µM | IC50 (PI3Kβ): 0.01 to 1 µM | IC50 (PI3Kγ): 0.01 to 1 µM | IC50 (PI3Kδ): 0.01 to 1 µM

CC(Nc1ncnc2[nH]cnc12)c1oc(=O)c2ccccc2c1-c1cn[nH]c1 (centres unmarked) [Example 122, 3-(1-(9H-purin-6-ylamino)ethyl)-4-(1H-pyrazol-4-yl)-1H-isochromen-1-one]
IC50 (PI3Kα): 0.01 to 1 µM | IC50 (PI3Kβ): 0.01 to 1 µM | IC50 (PI3Kγ): 0.01 to 1 µM | IC50 (PI3Kδ): < 0.01 µM

CC(Nc1ncnc(N)c1C#N)c1oc(=O)c2ccccc2c1-c1cn[nH]c1 (centres unmarked) [Example 123, 4-amino-6-((1-(1-oxo-4-(1H-pyrazol-4-yl)-1H-isochromen-3-yl)ethyl)amino)pyrimidine-5-carbonitrile hydrochloride]
IC50 (PI3Kα): 0.01 to 1 µM | IC50 (PI3Kβ): 0.01 to 1 µM | IC50 (PI3Kγ): 0.01 to 1 µM | IC50 (PI3Kδ): 0.01 to 1 µM

CC(Nc1ncnc2[nH]cnc12)c1oc(=O)c2ccccc2c1-c1cnc(N)nc1 (centres unmarked) [Example 124, 3-(1-(9H-purin-6-ylamino)ethyl)-4-(2-aminopyrimidin-5-yl)-1H-isochromen-1-one]
IC50 (PI3Kα): > 1 µM | IC50 (PI3Kβ): > 1 µM | IC50 (PI3Kγ): > 1 µM | IC50 (PI3Kδ): 0.01 to 1 µM

Nc1ncnc2c1c(-c1cc(O)cc(F)c1)nn2CC1=C(c2ccccc2)c2ccccc2CO1 [Example 128, 3-(4-amino-1-((4-phenyl-1H-isochromen-3-yl)methyl)-1H-pyrazolo[3,4-d]pyrimidin-3-yl)-5-fluorophenol]
IC50 (PI3Kα): > 1 µM | IC50 (PI3Kβ): 0.01 to 1 µM | IC50 (PI3Kγ): 0.01 to 1 µM | IC50 (PI3Kδ): 0.01 to 1 µM

Nc1ncnc2c1c(-c1cncc(O)c1)nn2CC1=C(c2ccccc2)c2ccccc2CO1 [Example 129, 5-(4-amino-1-((4-phenyl-1H-isochromen-3-yl)methyl)-1H-pyrazolo[3,4-d]pyrimidin-3-yl)pyridin-3-ol]
IC50 (PI3Kα): 0.01 to 1 µM | IC50 (PI3Kβ): 0.01 to 1 µM | IC50 (PI3Kγ): > 1 µM | IC50 (PI3Kδ): 0.01 to 1 µM

CC(c1oc(=O)c2ccccc2c1CN1CCOCC1)n1nc(-c2cc(O)cc(F)c2)c2c(N)ncnc21 (centres unmarked) [Example 130, 3-(1-(4-amino-3-(3-fluoro-5-hydroxyphenyl)-1H-pyrazolo[3,4-d]pyrimidin-1-yl)ethyl)-4-(morpholinomethyl)-1H-isochromen-1-one]
IC50 (PI3Kα): 0.01 to 1 µM | IC50 (PI3Kβ): 0.01 to 1 µM | IC50 (PI3Kγ): 0.01 to 1 µM | IC50 (PI3Kδ): < 0.01 µM

CC(c1oc(=O)c2ccccc2c1-c1ccc(CN2CCN(C)CC2)s1)n1nc(-c2cc(O)cc(F)c2)c2c(N)ncnc21 (centres unmarked) [Example 135, 3-(1-(4-amino-3-(3-fluoro-5-hydroxyphenyl)-1H-pyrazolo[3,4-d]pyrimidin-1-yl)ethyl)-4-(5-((4-methyl)piperazin-1-yl)methyl)thiophen-2-yl)-1H-isochromen-1-one, dihydrochloride]
IC50 (PI3Kα): 0.01 to 1 µM | IC50 (PI3Kβ): 0.01 to 1 µM | IC50 (PI3Kγ): 0.01 to 1 µM | IC50 (PI3Kδ): < 0.01 µM

CC(c1oc(=O)c2ccccc2c1-c1ccc(CCCN(C)C)s1)n1nc(-c2cc(O)cc(F)c2)c2c(N)ncnc21 (centres unmarked) [Example 136, 3-(1-(4-amino-3-(3-fluoro-5-hydroxyphenyl)-1H-pyrazolo[3,4-d]pyrimidin-1-yl)ethyl)-4-(5-(3-(dimethylamino)propyl)thiophen-2-yl)-1H-isochromen-1-one, Formate]
IC50 (PI3Kα): > 1 µM | IC50 (PI3Kβ): 0.01 to 1 µM | IC50 (PI3Kγ): > 1 µM | IC50 (PI3Kδ): < 0.01 µM

CC(c1oc(=O)c2ccccc2c1-c1cccc(CCCN(C)C)c1)n1nc(-c2cc(O)cc(F)c2)c2c(N)ncnc21 (centres unmarked) [Example 137, 3-(1-(4-amino-3-(3-fluoro-5-hydroxyphenyl)-1H-pyrazolo[3,4-d]pyrimidin-1-yl)ethyl)-4-(3-(3-(dimethylamino)propyl)phenyl)-1H-isochromen-1-one, Formic Acid]
IC50 (PI3Kα): > 1 µM | IC50 (PI3Kβ): 0.01 to 1 µM | IC50 (PI3Kγ): 0.01 to 1 µM | IC50 (PI3Kδ): < 0.01 µM

CC(c1oc(=O)c2ccccc2c1-c1ccc(CN2CCN(C)CC2)cc1)n1nc(-c2cc(O)cc(F)c2)c2c(N)ncnc21 (centres unmarked) [Example 139, 3-(1-(4-amino-3-(3-fluoro-5-hydroxyphenyl)-1H-pyrazolo[3,4-d]pyrimidin-1-yl)ethyl)-4-(4-((4-methylpiperazin-1-yl)methyl)phenyl)-1H-isochromen-1-one, dihydrochloride]
IC50 (PI3Kα): > 1 µM | IC50 (PI3Kβ): > 1 µM | IC50 (PI3Kγ): > 1 µM | IC50 (PI3Kδ): < 0.01 µM

CC(c1oc(=O)c2ccccc2c1-c1ccc(CN2CCCC2)cc1)n1nc(-c2cc(O)cc(F)c2)c2c(N)ncnc21 (centres unmarked) [Example 140, 3-(1-(4-amino-3-(3-fluoro-5-hydroxyphenyl)-1H-pyrazolo[3,4-d]pyrimidin-1-yl)ethyl)-4-(4-(pyrrolidin-1-ylmethyl)phenyl)-1H-isochromen-1-one, hydrochloride]
IC50 (PI3Kα): > 1 µM | IC50 (PI3Kβ): 0.01 to 1 µM | IC50 (PI3Kγ): > 1 µM | IC50 (PI3Kδ): < 0.01 µM

CC(c1oc(=O)c2ccccc2c1-c1ccc(CN2CCCCC2)cc1)n1nc(-c2cc(O)cc(F)c2)c2c(N)ncnc21 (centres unmarked) [Example 141, 3-(1-(4-amino-3-(3-fluoro-5-hydroxyphenyl)-1H-pyrazolo[3,4-d]pyrimidin-1-yl)ethyl)-4-(4-(piperidin-1-ylmethyl)phenyl)-1H-isochromen-1-one, hydrochloride]
IC50 (PI3Kα): > 1 µM | IC50 (PI3Kβ): 0.01 to 1 µM | IC50 (PI3Kγ): > 1 µM | IC50 (PI3Kδ): < 0.01 µM

CC(c1oc(=O)c2ccccc2c1-c1cccc(CN2CCN(C)CC2)c1)n1nc(-c2cc(O)cc(F)c2)c2c(N)ncnc21 (centres unmarked) [Example 142, 3-(1-(4-amino-3-(3-fluoro-5-hydroxyphenyl)-1H-pyrazolo[3,4-d]pyrimidin-1-yl)ethyl)-4-(3-((4-methylpiperazin-1-yl)methyl)phenyl)-1H-isochromen-1-one]
IC50 (PI3Kα): > 1 µM | IC50 (PI3Kβ): > 1 µM | IC50 (PI3Kγ): > 1 µM | IC50 (PI3Kδ): < 0.01 µM

CC(c1oc(=O)c2ccccc2c1C1=CC(C)(C)NC(C)(C)C1)n1nc(-c2cc(O)cc(F)c2)c2c(N)ncnc21 (centres unmarked) [Example 144, 3-(1-(4-amino-3-(3-fluoro-5-hydroxyphenyl)-1H-pyrazolo[3,4-d]pyrimidin-1-yl)ethyl)-4-(2,2,6,6-tetramethyl-1,2,3,6-tetrahydropyridin-4-yl)-1H-isochromen-1-one hydrochloride]
IC50 (PI3Kα): > 1 µM | IC50 (PI3Kβ): 0.01 to 1 µM | IC50 (PI3Kγ): 0.01 to 1 µM | IC50 (PI3Kδ): < 0.01 µM

Reference: patent US9321776B2, “Isochromene derivatives as phoshoinositide 3-kinases inhibitors” (CHIESI FARMACEUTICI S.p.A., priority 2013, dated 2016)
